Source: the METLIN SMRT retention time set (Domingo-Almenara et al. 2019)

Experiment: gradient 5% acetonitrile 3 min, to 50% in 2 min, to 85% in 15 min, held 3 min, 100 µL/min
Settings: column: Zorbax Extend-C18 2.1 x 50 mm; eluents: water / acetonitrile, 0.1% formic acid
Procedure, shortened: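 Retention times come from adduct peaks that were picked computationally and then checked by hand. The standards, pure and pooled in mixtures of ~100 molecules, were run on a Zorbax Extend-C18 column (2.1 × 50 mm, 1.8 μm) at 100 μL/min with water and acetonitrile, each with 0.1% formic acid. Detection was by quadrupole time-of-flight mass spectrometry in positive and negative ionization mode, with a dead volume of 40 μL and a dwell volume of 900 μL.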

Compound	RP-LC retention time
CC(=O)Nc1ccc(C)cc1S(=O)(=O)N1CCc2c(c(-c3nnc(-c4ccccc4)o3)nn2C)C1	815 s
COCc1nn(CC2CC2)c2c1CN(C(=O)c1ccc(C)s1)CC2	775 s
Cc1cc(C)cc(NC(=O)C2CCCN(S(=O)(=O)c3c[nH]c(C(=O)N4CCCCCC4)c3)C2)c1 (stereo unspecified)	955 s
O=C(NCCc1ccccc1)C1CCN(C(=O)c2ncn3c2COC(c2ccccc2)C3)CC1 (stereo unspecified)	708 s
COc1ccc(-c2csc(NC(=O)Cn3c(=O)oc4ccccc43)n2)cc1	933 s
O=C(c1ccoc1)N1CC(Oc2cccc(-c3nc(-c4ccccc4)no3)c2)C1	1070 s
CCN(CC)C(=O)COc1cc(C(F)(F)F)c2c(C)nn(-c3ccc(C)cc3)c2n1	1250 s
Cc1ccc(S(=O)(=O)N2CCCC(Cn3cnc4cccnc43)C2)c(C)c1 (stereo unspecified)	821 s
O=C(CCC(=O)Nc1noc2ccccc12)NCCc1ccc(Cl)cc1	816 s
CC(C)(C)CC(=O)N1CC2CN(S(=O)(=O)c3cccc(F)c3)CC(C1)O2	834 s
O=C(Cc1csc(Nc2ncccn2)n1)N1CCN(c2cccc(Cl)c2Cl)CC1	838 s
O=C1COc2ccccc2N1Cc1nc(-c2ccc(F)c(Br)c2)no1	1120 s
O=C(COC(=O)c1ccco1)Nc1ccc2c(c1)OCO2	688 s
O=C(Cc1c[nH]c2ccccc12)NC1CCN(c2ccc(=O)[nH]n2)C1 (stereo unspecified)	600 s
Cc1sc(C)c(S(=O)(=O)NCc2ccccc2)c1-c1cc(C(F)(F)F)on1	1140 s
CC(=O)c1ccc(NC(=O)N2C[C@@H]3C[C@H]2C[C@@H]3NC(=O)c2ccccc2)cc1	681 s
O=C([C@@H]1C[C@H](F)CN1S(=O)(=O)c1ccc(F)c(F)c1)N1CCc2ccccc2C1	943 s
CCn1nc(C)cc1C(=O)N1CCNC(=O)C1(C)C	568 s
COc1ccc(NC(=O)Cn2cnc3nc(N4CCC(C(=O)NC5CC5)CC4)sc3c2=O)cc1	681 s
O=c1n(CCOc2ccc(F)cc2)nc2c(S(=O)(=O)N3CCCC3)cccn12	824 s
O=C(Cc1ccc(Cl)cc1)NC1CCN(c2ccc(F)cc2)C1=O (stereo unspecified)	853 s
COC(=O)c1ccc2c(=O)n(-c3ccc4c(c3)OCO4)c(N3CCOCC3)nc2c1	875 s

Compound	RP-LC retention time
CN(C)C[C@@H]1CN(c2ccncn2)C[C@H]1NC(=O)c1ccc2ncccc2c1	652 s
Cc1cc(C)n2c(Nc3c(C)cccc3C)c(-c3ccc(Cl)cc3)nc2n1	815 s
O=C(c1cn(-c2cc(N3CCCCC3)ncn2)cn1)N1CCCC1	772 s
Cc1ccc(CN2CCC(N3CC4(CCCCC4)C3c3ccncc3)CC2)o1 (stereo unspecified)	591 s
CN1CCN(c2nnc(SCC(=O)Nc3cccc(C(F)(F)F)c3)s2)CC1	560 s
O=C(CSc1ccc(F)cc1)NCC1(CO)CC1	629 s
Cc1nc2nc(-c3ccccc3)nn2c(C)c1CC(=O)N(C)Cc1ccccc1	842 s
COCCN1C(=O)CCc2cc(NS(=O)(=O)c3ccc(C)c(Cl)c3)ccc21	851 s
Cc1nnc(NC(=O)c2ccccc2OCc2nc(-c3ccccc3)no2)s1	953 s
COCCN1CCC2(CC1)CN(Cc1ccc(Cl)c(F)c1)Cc1ccccc1O2	751 s
COc1ccc(NS(=O)(=O)c2cc(-c3[nH]ncc3C(=O)N3CCCC3)oc2C)cc1	676 s
COc1ccc(C)cc1N(C)C(=O)Cn1ccc2c(=O)n(C)c(=O)n(C)c21	714 s
CC(NC(=O)c1cc(-c2ccccc2)cn1C)c1ccccn1 (stereo unspecified)	703 s
NC(=O)C1CCN(C(=O)CSc2nnnn2-c2ccccc2)CC1	621 s
N#Cc1cccc(NC(=O)Cn2cccc(-c3nc(-c4ccccc4)no3)c2=O)c1	828 s
CNC(=O)Nc1ccc(C2(C(=O)Nc3ccc4c(c3)CCC4)CCC2)cc1	844 s
Cc1cc(-c2nnc(C3CC3)o2)c(C)n1CC(=O)Nc1ccc(F)cc1	792 s
O=C(CCCOc1ccc(Cl)cc1Cl)Nc1nc(-c2ccc(Cl)cc2)cs1	1300 s
O=C(NCC1CCN(C(=O)c2cc3ccccc3o2)CC1)c1cc(Cl)ccc1Cl	841 s
Cc1nc(C)c(C(=O)N2C[C@H]3C[C@H](C2)[C@H]2CCCC(=O)N2C3)s1	755 s
Cc1nc(C(=O)NCc2cccc(Cl)c2)c(C)o1	871 s
CCc1ccc(N2CC(c3noc(-c4ccccc4F)n3)CC2=O)cc1 (stereo unspecified)	1100 s

Compound	RP-LC retention time
Cc1ccc(NC(=O)N2CCC(N3CCN(Cc4ccc(F)cc4)C(=O)C3=O)CC2)cc1Cl	831 s
O=C(O)c1cccn2c(=O)c3ccc(F)cc3nc12	687 s
CCC(=O)N1CCc2c(sc3ncnc(NCc4ccccn4)c23)C1	559 s
CC(=O)Nc1ccc(-n2cnc(C(=O)NCc3ccccc3)c2)nc1	663 s
CCn1ccc(NC(=O)c2ccccc2C)n1	720 s
CCOc1ccc(NC(=O)c2cn(-c3cc(N4CCC(C)CC4)ncn3)cn2)cc1	1110 s
O=C(c1ccc(CN2C(=O)CSc3ncccc32)cc1)N1CCN(c2ccccn2)CC1	710 s
CCSc1ccccc1C(=O)NCC1CCN(C(=O)Oc2ccccc2)CC1	863 s
CCCCN(C(=O)c1nc(C)n(C2CCN(S(C)(=O)=O)CC2)c1C)c1ccccc1	666 s
Cc1nc(-c2cccc(NC(=O)CCn3nnc4ccccc4c3=O)c2)cs1	739 s
CN1c2ccc(F)cc2C(=O)NC12CCN(C(=O)c1cccc(F)c1)CC2	751 s
COCCN1C(=O)CCc2cc(NS(=O)(=O)c3ccccc3Cl)ccc21	771 s
Cc1cc(C)n(Cc2ccc(C(=O)NCC3Cn4cccc4C(=O)N3C)o2)n1 (stereo unspecified)	634 s
CCN1C(=O)CCc2cc(NS(=O)(=O)c3ccc(C)c(F)c3)ccc21	800 s
Cc1ccc2c(C(=O)NCCc3cccs3)cc(NC(=O)C3CC3)cc2n1	633 s
COc1ccc(-c2cn3c(CC(=O)Nc4ccc(F)c(F)c4)csc3n2)cc1OC	774 s
COCC(C)(O)CNC(=O)C(=O)Nc1cccc(F)c1 (stereo unspecified)	675 s
CC(C)(C)NC(=O)CN1c2ccc(F)cc2-c2ccccc2S1(=O)=O	905 s
COc1ccc(OC)c(S(=O)(=O)N2CCCC(C(=O)NC(C)(C)C)C2)c1 (stereo unspecified)	768 s
CC1CCN(S(=O)(=O)c2ccc(-c3nnc(C(=O)NCCN(C)C)o3)cc2)CC1	670 s
CN1C(=O)c2cc(C(=O)Nc3cccc(F)c3)nn2CC1(C)C(=O)NC1CCCCCC1 (stereo unspecified)	791 s
CCOC(=O)c1c(C)oc2ncnc(NCC3CCN(Cc4ccccc4F)CC3)c12	694 s
